Assays:
[1] = system: crude water-insoluble glucan producing enzyme; assay: Test for the production of water-insoluble glucan; type: biochemical, Streptococcus mutans OMZ-176
Description: To examine the effect of the syrup containing saccharide derivatives of α,α-trehalose, prepared in Example 6, on the production of water-insoluble glucan, the following experiment was carried out. According to usual method, Streptococcus mutans OMZ-176 was cultured to prepare a crude water-insoluble glucan producing enzyme solution (25 mg protein/ml). Test saccharide solutions were prepared by dissolving the syrup prepared in Example 1, the syrup prepared in Example 6, or α-maltosyl α,α-trehalose used in Experiment 1 in purified water to give a final concentration 2% on a dry solid basis. A half milliliter of one of the test saccharide solution was admixed with 0.25 ml of the crude water-insoluble glucan producing enzyme solution, 0.75 ml of 0.1 M phosphate buffer, and 0.5 ml of 2% sucrose. The resulting reaction mixture was placed in a new test tube (sized with 10 mm in diameter and 130 mm in height) slanted at an elevation angle of 30 degrees, and kept at 37° C. for 16 hours. The supernatant was gently collected. The remaining precipitate was washed with deionized water by centrifuging twice to collect a precipitate as adherent glucan. The washing solution and the above supernatant was mixed together and centrifuged at 5,000 rpm for 10 minutes to collect precipitate. The resulting precipitate was washed with deionized water and centrifuged to collect a non-adherent glucan. The adherent and non-adherent glucan were weighed. The total weight thereof was calculated as water-insoluble glucan. As a control, distilled water was used instead of the test saccharide solution. The water-insoluble glucan as control were weighed in the same manner. Inhibitory rate (%) of the production of water-insoluble glucan was calculated in such a manner of dividing the value of each test saccharide solution by that of the control, multiplying the resulting value by 100, and subtracting the resulting value from 100.

[2] = system: Streptococcus mutans OMZ-176; assay: Test for acidic fermentation; type: cell-based
Description: (§1) The resulting precipitate was washed with Stephan buffer (pH7.0), and centrifuged to collect a bacteria precipitate. Equal volume of Stephan buffer was added to the bacteria precipitate, followed by suspending the precipitate in the buffer to give a final concentration of 50% (v/v) in order to prepare two bacteria suspensions for testing. A half milliliter of the bacteria suspension was admixed with 0.5 ml of the above test saccharide solution and incubated at 37° C. for 90 minutes, while measuring the pH at 5, 15, 30, 60, and 90 minutes after the initiation of the culture. The Stephan's buffer was prepared by admixing 1 ml of “solution A” and “solution B” with distilled water to give a final volume 100 ml, and adjusting to pH7.0 (“solution A”: dissolving 71 g of Na2HPO4, 7.92 g of KOH and 68.1 g of KH2PO4 in distilled water to give a final volume 1,000 ml; and “solution B”: dissolving 45.4 g of KH2PO4, 3.2 g of MgSO4 2H2O and 100 ml of 1.2N HCl in distilled water to give a final volume 1,000 ml).

[3] = system: Streptococcus sobrinus 6715; assay: Test for acidic fermentation; type: cell-based
Description: as §1

[4] = Hygroscopicity and solubility in water of the products; type: physicochemical
[5] = system: Mouse fibroblast cells (L-929); assay: Test for cell protection (Alamar Blue); type: cell-based; details: 1% in D-MEM before one-hour drying
Description: To examine the influence of the syrup containing saccharide derivatives of α,α-trehalose, prepared in Example 6, on cell protection, the following experiment was carried out. […] As controls, control media containing D-MEM supplemented with 10% fetal calf serum and optionally containing 1% glycerin were prepared. The control mediums were added in the medium-removed wells of the remaining four plates, respectively. The cells were cultured for one day, dried for one hour in such a manner of keeping in opened plate under the sterile condition after the medium was removed from the wells by aspiration. Then, the cells were cultured in D-MEM supplemented with 10% fetal calf serum for three days while changing the medium once a day. The resulting plates were subjected to the measurement of cell amount of each well using “Alamar Blue” commercialized by Wako Pure Chemical Industries, Ltd., Osaka, Japan, just after the drying, and four hours, one day, two days or three days after the drying. […] In detail, the medium was added to each well in an amount of 4 ml. One plate was used for each measurement for the amount of cells treated with the test medium or the two control mediums. […] As evidence from the result in Table 10, the test medium or the control media increased the rate of cell proliferation of fibroblast cells. The control medium containing 1% of glycerin increased cell amount almost equal to the control medium containing only D-MEM. […] Influence caused by UV-irradiation was examined in the same manner as above instead of exposure to a drying condition (data not shown).

TNF-α = assay: Production of TNF-α by macrophage cell line RAW264.7 stimulated with IFN-γ and LPS; type: cell-based; details: data not shown
Excerpt: Glycerin enhanced the production of TNF-α in a concentration-dependent manner and inhibited the production of ICAM-1 molecule.

[6] = Test for absorbing or releasing moisture (comparison with usual moisturizing agents); type: physicochemical; details: 75% sample, after RH 60% for 216 hours
Description: The syrup containing saccharide derivatives of α,α-trehalose was confirmed to have a satisfactory property of absorbing and releasing moisture. To compare other saccharide used as a usual moisturizing agent for cosmetics, the following experiment was carried out. Test samples, containing 75%, on a dry solid basis, of either of the syrup prepared in Example 6, concentrated glycerin, sorbitol or maltitol, were prepared. About 1 g of each solution was placed in two containers. The containers were preciously weighed and kept at RH 60% for 216 hours. One of containers was kept at RH 80% and the other container was kept at PH 33%. After 24 hours or 168 hours, they were weighed.

[7] = Browning of L-ascorbic acid kept at 50° C. for 14 days (Experiment 3); type: physicochemical
Description: An aqueous solution further containing 10 parts by weight of glycerin (concentrated glycerin in cosmetic grade, commercialized by Kao Co., Ltd., Tokyo, Japan) instead of saccharide derivatives of α,α-trehalose was prepared. Three resulting solutions were kept at 50° C. under the shaded condition for 14 days. To examine browning, values of absorbance 420 nm of the test samples were measured by usual method and compared with that of the starting test samples. To examine the degree of coloring, relative values of test samples were calculated by comparing the value of differential absorbance of the solution containing only L-ascorbic acid, defined as 100%. Degree of coloring=(Difference of absorbance of test sample containing saccharide derivatives of α,α-trehalose or glycerin)/(Difference of absorbance of control sample containing only L-ascorbic acid)×100

[8] = 2% test saccharide solution with sucrose, 37° C., 16 hours
[9] = 0.7% test saccharide solution, 37° C., reaction time 0 minute
[10] = reaction time 5 minutes, listed as sucrose

Row | Compound | pH [2, 9] | pH ([2]; reaction time 5 minutes) | pH ([2]; reaction time 15 minutes) | pH ([2]; reaction time 30 minutes) | pH ([2]; reaction time 60 minutes) | pH ([2]; reaction time 90 minutes) | pH [3, 9] | pH ([3]; reaction time 5 minutes) | pH ([3]; reaction time 15 minutes) | pH ([3]; reaction time 30 minutes) | pH ([3]; reaction time 60 minutes) | pH ([3]; reaction time 90 minutes) | Relative weight change rate (%) ([6]; RH 33%, 0 hour) | Relative weight change rate (%) ([6]; RH 33%, 24 hours) | Relative weight change rate (%) ([6]; RH 33%, 168 hours) | Relative weight change rate (%) ([6]; RH 80%, 0 hour) | Relative weight change rate (%) ([6]; RH 80%, 24 hours) | Relative weight change rate (%) ([6]; RH 80%, 168 hours) | further results
1 | OC[C@H]1O[C@H](O[C@H]2O[C@H](CO)[C@@H](O[C@H]3O[C@H](CO)[C@@H](O[C@H]4O[C@H](CO)[C@@H](O)[C@H](O)[C@H]4O)[C@H](O)[C@H]3O)[C@H](O)[C@H]2O)[C@H](O)[C@@H](O)[C@@H]1O [Example 5, α-maltosyl α,α-trehalose] | 6.72 | 6.70 | 6.64 | 6.58 | 6.51 | 6.43 | 6.72 | 6.70 | 6.64 | 6.58 | 6.51 | 6.43 |  |  |  |  |  |  | Production of water-insoluble glucan, Adhesive glucan [1, 8]: 1120 μg/10 mg sucrose; Production of water-insoluble glucan, Non-adhesive glucan [1, 8]: 1009 μg/10 mg sucrose; Production of water-insoluble glucan, Total glucan [1, 8]: 2129 μg/10 mg sucrose; Inhibition rate of production, Adhesive glucan ([1]; versus distilled water): (50) %; Inhibition rate of production, Non-adhesive glucan ([1]; versus distilled water): (13) %; Inhibition rate of production, Total glucan ([1]; versus distilled water): (37) %; hygroscopicity [4]: low; solubility in water [4]: satisfactory
2 | OCC(O)CO [Glycerin, glycerin] |  |  |  |  |  |  |  |  |  |  |  |  | 0.0% | −13.8% | −18.8% | 0.0% | 8.2% |  | Rate of cell proliferation (%) ([5]; One day after dried): 165%; Rate of cell proliferation (%) ([5]; One hour (defined as 100%)): 100%; Rate of cell proliferation (%) ([5]; Three days after dried): 243%; Rate of cell proliferation (%) ([5]; Two days after dried): 235%; production of TNF-α (TNF-α): inhibited the production of TNF-α in a concentration-dependent manner
3 | O=C1O[C@H]([C@@H](O)CO)C(O)=C1O [L-Ascorbic acid, L-ascorbic acid] |  |  |  |  |  |  |  |  |  |  |  |  |  |  |  |  |  |  | Absorbance of test sample kept after 14 days (420 nm) ([7]; 50° C., shaded, 14 days): 5.000; Difference of absorbance (420 nm) ([7]; 14 days minus starting): 4.999; Absorbance of starting test sample (420 nm) ([7]; pH 6.5 aqueous solution): 0.001; Degree of coloring (%) ([7]; relative to solution containing only L-ascorbic acid as 100%): 100%
4 | OC[C@@H](O)[C@@H](O[C@H]1O[C@H](CO)[C@@H](O)[C@H](O)[C@H]1O)[C@H](O)[C@@H](O)CO [Maltitol, maltitol] |  |  |  |  |  |  |  |  |  |  |  |  | 0.0% | −1.4% | −4.2% | 0.0% | 3.5% | 5.3% | 
5 | OC[C@@H](O)[C@@H](O)[C@H](O)[C@@H](O)CO [Sorbitol, sorbitol] |  |  |  |  |  |  |  |  |  |  |  |  | 0.0% | −2.4% | −5.0% | 0.0% | 5.4% | 10.7% | 
6 | OC[C@H]1O[C@@](CO)(O[C@H]2O[C@H](CO)[C@@H](O)[C@H](O)[C@H]2O)[C@@H](O)[C@@H]1O [Sucrose, sucrose] | 6.60 | 4.05 | 3.97 | 3.99 | 3.99 | 4.01 | 6.74 | 4.18 | 3.87 | 3.81 | 3.82 | 3.91 |  |  |  |  |  |  | pH [2, 10]: about 4.0; pH [3, 10]: about 4.0
